Measurements as given in article PMC3823697, “Intensive Mutagenesis of the Nisin Hinge Leads to the Rational Design of Enhanced Derivatives” (PLoS ONE, 2013).
Ends that are not written are not given here.

Experiments:
[1] = tested on: L. lactis HP; assay: Minimum inhibitory concentration (MIC) assay in broth; format: cell-based, Lactococcus lactis; conditions: BSA-pretreated 96-well plates, triplicate, 2-fold dilutions from 500 nM, 10^5 cfu/ml, 16 h
Experimental: (§1) Minimum inhibitory concentration assays were carried out in triplicate using 96-well plates (Sarstedt) pretreated with bovine serum albumin (BSA) as previously described. Wild type nisin and nisin derivatives were adjusted to a 500 nM (when using L. lactis as a target) or 7.5 µM (all other indicators) starting concentration and 2-fold serial dilutions of each peptide were carried out. An overnight of the target strain was subcultured and incubated to an OD600 nm of 0.5 before being diluted to give a final inoculum of 10^5cfu/ml in 200μl. The plates were incubated at an appropriate temperature and inspected after 16 hours. The MIC was determined as the lowest concentration at which no growth was visible.

[2] = tested on: M. smegmatis MC2155; assay: Deferred antagonism assay of producer strains; format: cell-based, Mycobacterium smegmatis; conditions: for Deferred Antagonism Zone Area: L. lactis NZ9800 producer spotted (approx. 3 µl) on GM17 agar, incubated 40 h, overlaid with 0.75% agar seeded 0.5% with M. smegmatis MC2155, area of zone minus area of spot; for Deferred Antagonism Relative to WT (%): producer strain vs M. smegmatis MC2155, zone area relative to wild type nisin A producer
[3] = tested on: M. smegmatis MC2155; assay: Agar well diffusion assay with purified peptide; format: cell-based, Mycobacterium smegmatis; conditions: for 100 mg L^−1 Agar Diffusion Zone Area: purified peptide 100 mg L^−1, 50 µl per well, 0.75% agar seeded 0.5% with 40 h culture of M. smegmatis MC2155, 40 h; for 100 mg L^−1 Agar Diffusion Relative to WT (%): purified peptide 100 mg L^−1 vs M. smegmatis MC2155, zone area relative to nisin A
[4] = tested on: L. lactis HP; assay: Agar well diffusion assay with purified peptide; format: cell-based, Lactococcus lactis; conditions: for 100 mg L^−1 Agar Diffusion Zone Area: purified peptide 100 mg L^−1, 50 µl per well, 1.5% agar seeded 0.5% with L. lactis HP, 16 h; for 100 mg L^−1 Agar Diffusion Relative to WT (%): purified peptide 100 mg L^−1 vs L. lactis HP, zone area relative to nisin A
[5] = tested on: S. aureus RF122; assay: Agar well diffusion assay with purified peptide; format: cell-based, Staphylococcus aureus; conditions: for 100 mg L^−1 Agar Diffusion Zone Area: purified peptide 100 mg L^−1, 50 µl per well, 1.5% agar seeded 0.5% with S. aureus RF122, 16 h; for 100 mg L^−1 Agar Diffusion Relative to WT (%): purified peptide 100 mg L^−1 vs S. aureus RF122, zone area relative to nisin A
[6] = tested on: S. agalactiae ATCC 13813; assay: Deferred antagonism assay of producer strains; format: cell-based, Streptococcus agalactiae; conditions: for Deferred Antagonism Zone Area: L. lactis NZ9800 producer spotted (approx. 3 µl) on GM17 agar, 16 h 30°C, overlaid with 0.75% agar seeded 0.5% with S. agalactiae ATCC 13813, area of zone minus area of spot; for Deferred Antagonism Relative to WT (%): producer strain vs S. agalactiae ATCC 13813, zone area relative to wild type nisin A producer
[7] = tested on: S. agalactiae ATCC 13813; assay: Minimum inhibitory concentration (MIC) assay in broth; format: cell-based, Streptococcus agalactiae; conditions: for MIC Specific Activity as % of WT: broth, BSA-pretreated 96-well plates, triplicate, 2-fold dilutions from 7.5 µM, 10^5 cfu/ml, 16 h
Experimental: as §1

[8] = tested on: S. aureus RF122; assay: Deferred antagonism assay of producer strains; format: cell-based, Staphylococcus aureus; conditions: for Deferred Antagonism Zone Area: L. lactis NZ9800 producer spotted (approx. 3 µl) on GM17 agar, 16 h 30°C, overlaid with 0.75% agar seeded 0.5% with S. aureus RF122, area of zone minus area of spot; for Deferred Antagonism Relative to WT (%): producer strain vs S. aureus RF122, zone area relative to wild type nisin A producer
[9] = tested on: S. agalactiae ATCC 13813; assay: Agar well diffusion assay with purified peptide; format: cell-based, Streptococcus agalactiae; conditions: for 100 mg L^−1 Agar Diffusion Zone Area: purified peptide 100 mg L^−1, 50 µl per well, 1.5% agar seeded 0.5% with S. agalactiae ATCC 13813, 16 h; for 100 mg L^−1 Agar Diffusion Relative to WT (%): purified peptide 100 mg L^−1 vs S. agalactiae ATCC 13813, zone area relative to nisin A
[10] = tested on: L. lactis HP; assay: Deferred antagonism assay of producer strains; format: cell-based, Lactococcus lactis; conditions: for Deferred Antagonism Zone Area: L. lactis NZ9800 producer spotted (approx. 3 µl) on GM17 agar, 16 h 30°C, overlaid with 0.75% agar seeded 0.5% with L. lactis HP, area of zone minus area of spot; for Deferred Antagonism Relative to WT (%): producer strain vs L. lactis HP, zone area relative to wild type nisin A producer
[11] = tested on: S. aureus RF122; assay: Minimum inhibitory concentration (MIC) assay in broth; format: cell-based, Staphylococcus aureus; conditions: BSA-pretreated 96-well plates, triplicate, 2-fold dilutions from 7.5 µM, 10^5 cfu/ml, 16 h
Experimental: as §1

## SAA: nisin A derivative with hinge region consisting of SAA (rational design) (ITSISLCTPGCKTGALMGCSAATATCHCSIHVSK; also: nisin-type thioether rings and dehydrated residues, not located; UniProt P13068 24-57, looked up, variant N20S M21A K22A)
[1]
  MIC Specific Activity as % of WT: 50%
[2]
  Deferred Antagonism Zone Area: 303.85±59.93 mm^2
  Deferred Antagonism Relative to WT (%): 592.15%
[3]
  100 mg L^−1 Agar Diffusion Zone Area: 101.19±11.510 mm^2
  100 mg L^−1 Agar Diffusion Relative to WT (%): 149.27%
[4]
  100 mg L^−1 Agar Diffusion Zone Area: 344.76±18.50 mm^2
[5]
  100 mg L^−1 Agar Diffusion Zone Area: 130.60±4.46 mm^2
  100 mg L^−1 Agar Diffusion Relative to WT (%): 131.47%
[6]
  Deferred Antagonism Zone Area: 407.98±18.452 mm^2
  Deferred Antagonism Relative to WT (%): 180.08%
[7]
  MIC Specific Activity as % of WT: 100%
[8]
  Deferred Antagonism Zone Area: 236.28±13.53 mm^2
  Deferred Antagonism Relative to WT (%): 170.83%
[9]
  100 mg L^−1 Agar Diffusion Zone Area: 301.62±8.18 mm^2
  100 mg L^−1 Agar Diffusion Relative to WT (%): 122.46%
[10]
  Deferred Antagonism Zone Area: 483.14±33.89 mm^2
  Deferred Antagonism Relative to WT (%): 161.28%
[11]
  MIC Specific Activity as % of WT: 25%

## NAI: nisin A derivative with hinge region NAI (ITSISLCTPGCKTGALMGCNAITATCHCSIHVSK; also: nisin-type thioether rings and dehydrated residues, not located; UniProt P13068 24-57, looked up, variant M21A K22I)
[1]
  MIC Specific Activity as % of WT: 100%
[2]
  Deferred Antagonism Zone Area: 270.04±58.30 mm^2
  Deferred Antagonism Relative to WT (%): 526.26%
[3]
  100 mg L^−1 Agar Diffusion Zone Area: 78.50±8.16 mm^2
  100 mg L^−1 Agar Diffusion Relative to WT (%): 115.8%
[4]
  100 mg L^−1 Agar Diffusion Zone Area: 371.32±19.60 mm^2
[5]
  100 mg L^−1 Agar Diffusion Zone Area: 129.75±11.36 mm^2
  100 mg L^−1 Agar Diffusion Relative to WT (%): 130.61%
[6]
  Deferred Antagonism Zone Area: 318.81±7.915 mm^2
  Deferred Antagonism Relative to WT (%): 140.72%
[7]
  MIC Specific Activity as % of WT: 200%
[8]
  Deferred Antagonism Relative to WT (%): 118.02%
[9]
  100 mg L^−1 Agar Diffusion Zone Area: 291.52±8.46 mm^2
  100 mg L^−1 Agar Diffusion Relative to WT (%): 118.36%
[10]
  Deferred Antagonism Zone Area: 439.52±47.88 mm^2
  Deferred Antagonism Relative to WT (%): 146.71%
[11]
  MIC Specific Activity as % of WT: 25%

## AAA: nisin A derivative with hinge region consisting of AAA (rational design) (ITSISLCTPGCKTGALMGCAAATATCHCSIHVSK; not fully specified; also: nisin-type thioether rings and dehydrated residues, not located; UniProt P13068 24-57, looked up, variant N20A M21A K22A)
[1]
  MIC Specific Activity as % of WT: 100%
[2]
  Deferred Antagonism Zone Area: 277.65±60.42 mm^2
  Deferred Antagonism Relative to WT (%): 541.09%
[3]
  100 mg L^−1 Agar Diffusion Zone Area: 149.24±4.776 mm^2
  100 mg L^−1 Agar Diffusion Relative to WT (%): 220.15%
[4]
  100 mg L^−1 Agar Diffusion Zone Area: 416.00±17.99 mm^2
  100 mg L^−1 Agar Diffusion Relative to WT (%): 155.41%
[5]
  100 mg L^−1 Agar Diffusion Zone Area: 155.77±3.30 mm^2
  100 mg L^−1 Agar Diffusion Relative to WT (%): 156.81%
[6]
  Deferred Antagonism Zone Area: 401.32±15.62 mm^2
  Deferred Antagonism Relative to WT (%): 177.14%
[7]; broth based specific activity (MIC) assay
  Improvement in broth based specific activity relative to the natural peptide: two-fold improvement
[7]
  MIC Specific Activity as % of WT: 200%
[8]
  Deferred Antagonism Zone Area: 292.24±11.46 mm^2
  Deferred Antagonism Relative to WT (%): 211.29%
[9]
  100 mg L^−1 Agar Diffusion Zone Area: 305.58±2.39 mm^2
  100 mg L^−1 Agar Diffusion Relative to WT (%): 124.06%
[10]
  Deferred Antagonism Zone Area: 492.83±40.27 mm^2
  Deferred Antagonism Relative to WT (%): 164.51%
[11]
  MIC Specific Activity as % of WT: 25%

## Nisin A (ITSISLCTPGCKTGALMGCNMKTATCHCSIHVSK; not fully specified; Lantibiotic nisin-A; UniProt P13068 24-57, looked up) [WT, 34 amino acid lantibiotic with three dehydrated amino acids and five thioether rings; hinge N20-M21-K22, reference compound]
[2]
  Deferred Antagonism Zone Area: 51.31±10.08 mm^2
[3]
  100 mg L^−1 Agar Diffusion Zone Area: 67.79±4.308 mm^2
[4]
  100 mg L^−1 Agar Diffusion Zone Area: 267.69±9.21 mm^2
[5]
  100 mg L^−1 Agar Diffusion Zone Area: 99.34±12.33 mm^2
[6]
  Deferred Antagonism Zone Area: 226.55±2.96 mm^2
[8]
  Deferred Antagonism Zone Area: 138.31±3.36 mm^2
[9]
  100 mg L^−1 Agar Diffusion Zone Area: 246.31±2.74 mm^2
[10]
  Deferred Antagonism Zone Area: 299.58±7.04 mm^2

## SLS: nisin A derivative with hinge region SLS (ITSISLCTPGCKTGALMGCSLSTATCHCSIHVSK; also: nisin-type thioether rings and dehydrated residues, not located; UniProt P13068 24-57, looked up, variant N20S M21L K22S)
[1]
  MIC Specific Activity as % of WT: 25%
[2]
  Deferred Antagonism Zone Area: 230.31±20.31 mm^2
  Deferred Antagonism Relative to WT (%): 448.84%
[3]
  100 mg L^−1 Agar Diffusion Zone Area: 119.56±8.59 mm^2
  100 mg L^−1 Agar Diffusion Relative to WT (%): 176.36%
[4]
  100 mg L^−1 Agar Diffusion Zone Area: 321.93±22.43 mm^2
  100 mg L^−1 Agar Diffusion Relative to WT (%): 120.26%
[5]
  100 mg L^−1 Agar Diffusion Zone Area: 98.82±10.14 mm^2
  100 mg L^−1 Agar Diffusion Relative to WT (%): 99.47%
[6]
  Deferred Antagonism Zone Area: 209.45±17.11 mm^2
  Deferred Antagonism Relative to WT (%): 92.45%
[7]
  MIC Specific Activity as % of WT: 25%
[8]
  Deferred Antagonism Zone Area: 153.93±7.15 mm^2
  Deferred Antagonism Relative to WT (%): 111.29%
[9]
  100 mg L^−1 Agar Diffusion Zone Area: 226.05±4.10 mm^2
  100 mg L^−1 Agar Diffusion Relative to WT (%): 91.78%
[10]
  Deferred Antagonism Zone Area: 370.75±28.28 mm^2
  Deferred Antagonism Relative to WT (%): 123.76%
[11]
  MIC Specific Activity as % of WT: <6%
